Measurements published in PubChem BioAssay (NCI).
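How tested: cells in 96-well plates exposed to compound for 48 hours at five concentrations. At the GI50, growth is halved. TGI marks complete inhibition of growth.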

Key:
Assay in all cases: NCI anticancer screen, dose series, 48 h
SNB-75 CNS = system: SNB-75 CNS
K-562 leukemia = system: K-562 leukemia
T-47D breast = system: T-47D breast
SNB-19 CNS = system: SNB-19 CNS
SF-268 CNS = system: SF-268 CNS
SK-MEL-28 melanoma = system: SK-MEL-28 melanoma
OVCAR-3 ovarian = system: OVCAR-3 ovarian
HOP-62 NSCLC = system: HOP-62 NSCLC
SF-539 CNS = system: SF-539 CNS
SF-295 CNS = system: SF-295 CNS
BT-549 breast = system: BT-549 breast
HL-60(TB) leukemia = system: HL-60(TB) leukemia
DU-145 prostate = system: DU-145 prostate
IGROV1 ovarian = system: IGROV1 ovarian
HT29 colon = system: HT29 colon
U251 CNS = system: U251 CNS
M14 melanoma = system: M14 melanoma
HCC-2998 colon = system: HCC-2998 colon
UACC-257 melanoma = system: UACC-257 melanoma
CAKI-1 renal = system: CAKI-1 renal
KM12 colon = system: KM12 colon
MOLT-4 leukemia = system: MOLT-4 leukemia
SK-MEL-5 melanoma = system: SK-MEL-5 melanoma
NCI-H226 lung = system: NCI-H226 lung
NCI-H522 lung = system: NCI-H522 lung
RXF 393 renal = system: RXF 393 renal
786-0 renal = system: 786-0 renal
OVCAR-4 ovarian = system: OVCAR-4 ovarian
RPMI-8226 leukemia = system: RPMI-8226 leukemia
CCRF-CEM leukemia = system: CCRF-CEM leukemia
PC-3 prostate = system: PC-3 prostate
SK-OV-3 ovarian = system: SK-OV-3 ovarian
MDA-MB-435 = system: MDA-MB-435
SW-620 colon = system: SW-620 colon
MALME-3M melanoma = system: MALME-3M melanoma
A549 NSCLC = system: A549 NSCLC
HCT-15 colon = system: HCT-15 colon
NCI-H460 lung = system: NCI-H460 lung
OVCAR-8 ovarian = system: OVCAR-8 ovarian
NCI-H23 lung = system: NCI-H23 lung
NCI/ADR-RES ovarian = system: NCI/ADR-RES ovarian
COLO 205 colon = system: COLO 205 colon
MCF7 breast = system: MCF7 breast
UACC-62 melanoma = system: UACC-62 melanoma
MDA-MB-231 breast = system: MDA-MB-231 breast
ACHN renal = system: ACHN renal
A498 renal = system: A498 renal
OVCAR-5 ovarian = system: OVCAR-5 ovarian
HCT-116 colon = system: HCT-116 colon
SR leukemia = system: SR leukemia
SN12C renal = system: SN12C renal
UO-31 renal = system: UO-31 renal
HS 578T breast = system: HS 578T breast
TK-10 renal = system: TK-10 renal

Structure (SMILES): COc1cc(-c2cc(-c3nc4ccc(F)cc4[nH]3)[nH]n2)cc(OC)c1OC
- GI50 (SNB-75 CNS): 1.76 µM
- TGI (SNB-75 CNS): 5.54 µM
- GI50 (K-562 leukemia): 2.87 µM
- TGI (K-562 leukemia): 32.7 µM
- GI50 (T-47D breast): 0.764 µM
- TGI (T-47D breast): 3.09 µM
- GI50 (SNB-19 CNS): 5.47 µM
- TGI (SNB-19 CNS): 18.8 µM
- GI50 (SF-268 CNS): 3.23 µM
- TGI (SF-268 CNS): 11.2 µM
- GI50 (SK-MEL-28 melanoma): 2.39 µM
- TGI (SK-MEL-28 melanoma): 6.52 µM
- GI50 (OVCAR-3 ovarian): 2.95 µM
- TGI (OVCAR-3 ovarian): 10 µM
- GI50 (HOP-62 NSCLC): 2.37 µM
- TGI (HOP-62 NSCLC): 8.05 µM
- GI50 (SF-539 CNS): 3.58 µM
- TGI (SF-539 CNS): 14.4 µM
- GI50 (SF-295 CNS): 2.51 µM
- TGI (SF-295 CNS): 9.67 µM
- GI50 (BT-549 breast): 1.84 µM
- TGI (BT-549 breast): 6.28 µM
- GI50 (HL-60(TB) leukemia): 2.52 µM
- TGI (HL-60(TB) leukemia): 7.71 µM
- GI50 (DU-145 prostate): 3.17 µM
- TGI (DU-145 prostate): 13 µM
- GI50 (IGROV1 ovarian): 2.27 µM
- TGI (IGROV1 ovarian): 10.7 µM
- GI50 (HT29 colon): 4.4 µM
- TGI (HT29 colon): 28.3 µM
- GI50 (U251 CNS): 2.61 µM
- TGI (U251 CNS): 12 µM
- GI50 (M14 melanoma): 2.36 µM
- TGI (M14 melanoma): 7.62 µM
- GI50 (HCC-2998 colon): 5.96 µM
- TGI (HCC-2998 colon): 18.7 µM
- GI50 (UACC-257 melanoma): 2.15 µM
- TGI (UACC-257 melanoma): 5.9 µM
- GI50 (CAKI-1 renal): 1.8 µM
- TGI (CAKI-1 renal): 6.84 µM
- GI50 (KM12 colon): 2.29 µM
- TGI (KM12 colon): 6.23 µM
- GI50 (MOLT-4 leukemia): 2.1 µM
- TGI (MOLT-4 leukemia): 4.82 µM
- GI50 (SK-MEL-5 melanoma): 1.39 µM
- TGI (SK-MEL-5 melanoma): 2.8 µM
- GI50 (NCI-H226 lung): 1.28 µM
- TGI (NCI-H226 lung): 4.31 µM
- GI50 (NCI-H522 lung): 1.73 µM
- TGI (NCI-H522 lung): 5.15 µM
- GI50 (RXF 393 renal): 1.85 µM
- TGI (RXF 393 renal): 9.36 µM
- GI50 (786-0 renal): 3.97 µM
- TGI (786-0 renal): 14.6 µM
- GI50 (OVCAR-4 ovarian): 1.29 µM
- TGI (OVCAR-4 ovarian): 4.27 µM
- GI50 (RPMI-8226 leukemia): 1.24 µM
- TGI (RPMI-8226 leukemia): 3.26 µM
- GI50 (CCRF-CEM leukemia): 1.98 µM
- TGI (CCRF-CEM leukemia): 5.74 µM
- GI50 (PC-3 prostate): 1.63 µM
- TGI (PC-3 prostate): 5.84 µM
- GI50 (SK-OV-3 ovarian): 3.32 µM
- TGI (SK-OV-3 ovarian): 9.59 µM
- GI50 (MDA-MB-435): 2.12 µM
- TGI (MDA-MB-435): 5.44 µM
- GI50 (SW-620 colon): 4.11 µM
- TGI (SW-620 colon): 20.5 µM
- GI50 (MALME-3M melanoma): 1.96 µM
- TGI (MALME-3M melanoma): 8.44 µM
- GI50 (A549 NSCLC): 2.46 µM
- TGI (A549 NSCLC): 8.81 µM
- GI50 (HCT-15 colon): 2.79 µM
- TGI (HCT-15 colon): 10.8 µM
- GI50 (NCI-H460 lung): 2.9 µM
- TGI (NCI-H460 lung): 11.8 µM
- GI50 (OVCAR-8 ovarian): 1.99 µM
- TGI (OVCAR-8 ovarian): 5.03 µM
- GI50 (NCI-H23 lung): 2.35 µM
- TGI (NCI-H23 lung): 6.89 µM
- GI50 (NCI/ADR-RES ovarian): 3.19 µM
- TGI (NCI/ADR-RES ovarian): 9.2 µM
- GI50 (COLO 205 colon): 3.26 µM
- TGI (COLO 205 colon): 10.3 µM
- GI50 (MCF7 breast): 2.11 µM
- TGI (MCF7 breast): 6.37 µM
- GI50 (UACC-62 melanoma): 1.8 µM
- TGI (UACC-62 melanoma): 4.82 µM
- GI50 (MDA-MB-231 breast): 3.05 µM
- TGI (MDA-MB-231 breast): 15.2 µM
- GI50 (ACHN renal): 2.54 µM
- TGI (ACHN renal): 11.6 µM
- GI50 (A498 renal): 1.86 µM
- TGI (A498 renal): 11.9 µM
- GI50 (OVCAR-5 ovarian): 11.1 µM
- TGI (OVCAR-5 ovarian): 24 µM
- GI50 (HCT-116 colon): 2.81 µM
- TGI (HCT-116 colon): 10.4 µM
- GI50 (SR leukemia): 3.45 µM
- TGI (SR leukemia): 32 µM
- GI50 (SN12C renal): 2.92 µM
- TGI (SN12C renal): 12.9 µM
- GI50 (UO-31 renal): 1.74 µM
- TGI (UO-31 renal): 6.97 µM
- GI50 (HS 578T breast): 3.32 µM
- TGI (HS 578T breast): > 100 µM
- GI50 (TK-10 renal): 4.39 µM
- TGI (TK-10 renal): 16 µM
